# Laboratory results from publication PMC5601625, “Defining a therapeutic window for kinase inhibitors in leukemia to avoid neutropenia” (Oncotarget, 2017).
# Entries after “also recorded” stand apart in the source; their conditions may differ. Where two headings read alike, the source gives them in different places.
# Key:
# K562 = assay: Cell Titer Glo cell viability assay, 48 h; assay type: cell-based, human; conditions: read-out: IC50 of inhibitors on cell lines, m (mean)
# Experimental: (§1) The activity of the kinase inhibitor collection against a panel of human leukemia cell lines was determined in cell viability assays run over 48 h using the Cell Titer Glo reagent.
# (§2) Figure 1 Effects of kinase inhibition on the proliferation of leukemia cells A. Human leukemia cell lines were treated with duplicate serial dilutions of kinase inhibitors and the effect on cell viability was determined by Cell Titer Glo assay after 48 hours. […] HL-60 cells were treated with serial dilutions of mTor/PI3K B. and MEK C. inhibitors and the effect on cell viability was determined after 48 hours. Data shown is the mean ± SEM of 3 independent experiments.
# (§3) Leukemia and lymphoma cell lines were grown in RPMI containing 10% FCS. […] Cell lines are routinely tested for mycoplasma and genotyped by short tandem repeating (STR) profiling to confirm identity.
# (§4) Compounds were obtained from SynMedChem and dissolved at […] in DMSO. Serial 2-fold dilutions of each compound were prepared in DMSO using a liquid handling robot (Janus, Perkin Elmer). Each dilution (100nL) was transferred to duplicate tissue culture plates containing 50 μL of media containing 5 × 10^3 cells using a 384 well pin tool. Cells were incubated for 48 h and cell viability was determined using Cell Titer Glow reagents as described by the manufacturer (Promega). Data was acquired using a luminescent plate reader (Envision, Perkin Elmer) and analysed using Activity Base (IDBS, Guilford, UK) and visualised using Spotfire (TIBCO, Palo Alto, CA) as described previously. Each cell line was assayed in independent experiments on at least two occasions. […] Serial 2-fold dilutions of each compound were prepared in media containing 0.2% DMSO and 50 μl of each dilution was added to 10^4 cells in 50 μl of media. Cells were incubated for 48 h and cell viability was determined using Cell Titer Glow assay as described above.
# HL-60 = assay: Cell Titer Glo cell viability assay, 48 h; assay type: cell-based, human; conditions: read-out: IC50 of inhibitors on cell lines, m (mean)
# Experimental: as §1, §2, §3, §4
# EOL-1 = assay: Cell Titer Glo cell viability assay, 48 h; assay type: cell-based, human; conditions: read-out: IC50 of inhibitors on cell lines, m (mean)
# Experimental: as §1, §2, §3, §4
# HEL.92.1.7 = assay: Cell Titer Glo cell viability assay, 48 h; assay type: cell-based, human; conditions: read-out: IC50 of inhibitors on cell lines, m (mean)
# Experimental: as §1, §2, §3, §4
# MOLT4 = assay: Cell Titer Glo cell viability assay, 48 h; assay type: cell-based, human; conditions: read-out: IC50 of inhibitors on cell lines, m (mean)
# Experimental: as §1, §2, §3, §4
# KU-812 = assay: Cell Titer Glo cell viability assay, 48 h; assay type: cell-based, human; conditions: read-out: IC50 of inhibitors on cell lines, m (mean)
# Experimental: as §1, §2, §3, §4
# U937 = assay: Cell Titer Glo cell viability assay, 48 h; assay type: cell-based, human; conditions: read-out: IC50 of inhibitors on cell lines, m (mean)
# Experimental: as §1, §2, §3, §4
# THP-1 = assay: Cell Titer Glo cell viability assay, 48 h; assay type: cell-based, human; conditions: read-out: IC50 of inhibitors on cell lines, m (mean)
# Experimental: as §1, §2, §3, §4
# JURKAT = assay: Cell Titer Glo cell viability assay, 48 h; assay type: cell-based, human; conditions: read-out: IC50 of inhibitors on cell lines, m (mean)
# Experimental: as §1, §2, §3, §4
# MEG-01 = assay: Cell Titer Glo cell viability assay, 48 h; assay type: cell-based, human; conditions: read-out: IC50 of inhibitors on cell lines, m (mean)
# Experimental: as §1, §2, §3, §4
# OCI-AML3 = assay: Cell Titer Glo cell viability assay, 48 h; assay type: cell-based, human; conditions: read-out: IC50 of inhibitors on cell lines, m (mean)
# Experimental: as §1, §2, §3, §4
# MV4;11 = assay: Cell Titer Glo cell viability assay, 48 h; assay type: cell-based, human; conditions: read-out: IC50 of inhibitors on cell lines, m (mean)
# Experimental: as §1, §2, §3, §4
# [1] = system: primary murine bone-marrow neutrophils; assay: Live cell imaging viability of primary bone-marrow neutrophils; conditions: G-CSF- or GM-CSF-primed, inhibitors at 1 μM, over 24 hours
# Text: Using a high-throughput live cell imaging approach reported previously [15], we examined the effect of the kinase inhibitors on the viability of bone marrow neutrophils to determine their potential to cause neutropenia (Figure 2). Because G-CSF and GM-CSF are dominant regulators of granulopoiesis and neutrophil survival, and are commonly used in a clinical setting to mobilize hematopoietic stem cells into the blood and increase neutrophil production [27–31], we treated cells with these cytokines immediately prior to drug exposure. The addition of either cytokine prevents constitutive neutrophil apoptosis thereby increasing the window for detection of changes in viability induced by drug treatments.
# For all above, data represent mean ± SEM from three independent samples.
# Mouse bone marrow neutrophils were prepared as described [15]. Neutrophils were resuspended in phenol red-free DMEM/10% FBS for imaging studies. The purity of neutrophil preparations was routinely 96% ± 4% (Mean ± SD, n = 50) as assessed by cytology following May-Grünwald/Giemsa staining.
# Kinase inhibitors were purchased from SYN kinase (Melbourne, Australia) and were used at 1 μM, unless otherwise specified, with dilutions performed in assay buffer containing 0.1% DMSO.
# Viability was monitored using 2 μg/mL PI (Sigma). Images were captured every 30-60 min by the Zeiss Axiovert 200M Microscope at 37 °C/10% CO2. Quantitative analysis was performed using a custom-scripted MetaMorph (Molecular Devices) journal suite incorporating the count nuclei function, reconstruction & subtraction functions and Integrated Morphometry Analysis to select and analyze cells of interest.
# [2] = 48 h, mean of 2 independent experiments, 0 = less than 10 nM, cell line not given
# [3] = Homo sapiens, 48 h, mean of 2 independent experiments, 0 = less than 10 nM, cell line not given
# [4] = Homo sapiens, EOL1, 48 h, mean of 2 independent experiments, 0 = less than 10 nM, cell line not given
# [5] = Homo sapiens, MOLT-4, 48 h, mean of 2 independent experiments, 0 = less than 10 nM, cell line not given
# [6] = Homo sapiens, KU812, 48 h, mean of 2 independent experiments, 0 = less than 10 nM, cell line not given
# [7] = Homo sapiens, U-937, 48 h, mean of 2 independent experiments, 0 = less than 10 nM, cell line not given
# [8] = Homo sapiens, OCI-AML-3, 48 h, mean of 2 independent experiments, 0 = less than 10 nM, cell line not given
Structure (SMILES),IC50 (K562; [2]),IC50 (HL-60; [2]),IC50 (MOLT4; [2]),IC50 (U937; [2]),IC50 (THP-1; [2]),IC50 (JURKAT; [2]),IC50 (OCI-AML3; [2]),IC50 (MV4;11; [2]),IC50 (K562; [3]),IC50 (HL-60; [3]),IC50 (MOLT4; [5]),IC50 (U937; [7]),IC50 (EOL-1; [2]),IC50 (HEL.92.1.7; [2]),IC50 (KU-812; [2]),IC50 (MEG-01; [2]),effect on mouse neutrophil viability (words) [1],IC50 (EOL-1; [4]),IC50 (HEL.92.1.7; [3]),IC50 (KU-812; [6]),further results
CN(C)CC[C@H](CSc1ccccc1)Nc1ccc(S(=O)(=O)NC(=O)c2ccc(N3CCN(Cc4ccccc4-c4ccc(Cl)cc4)CC3)cc2)cc1[N+](=O)[O-] [ABT-737],,,,,,,,,,,,,,,,,no impact on mouse neutrophil viability; also recorded: minimal effects on neutrophils,,,,
CC(=O)Nc1nc(C)c(-c2ccc(Cl)c(S(=O)(=O)NCCO)c2)s1 [PIK-93],,,,,,,,,,,,,,,,,,,,,IC50 (K562): 9.98 µM; IC50 (HL-60): 2.07 µM; IC50 (EOL-1): 0.39 µM; IC50 (HEL.92.1.7): 8.14 µM; IC50 (MOLT4): 2.95 µM; IC50 (KU-812): > 10 µM; IC50 (U937): 1.29 µM; IC50 (THP-1): 7.05 µM; IC50 (JURKAT): 3.4 µM; IC50 (MEG-01): > 10 µM; IC50 (OCI-AML3): 1.8 µM; IC50 (MV4;11): 1.23 µM
Oc1cccc(-c2nc(N3CCOCC3)c3oc4ncccc4c3n2)c1 [PI103],,,,,,,,,2.29 µM,0.29 µM,0.21 µM,0.26 µM,,,,,some neutrophil toxicity,0.22 µM,1.89 µM,3.35 µM,IC50 (THP-1; [3]): 0.88 µM; IC50 (JURKAT; [3]): 0.96 µM; IC50 (MEG-01; [3]): 1.52 µM; IC50 (OCI-AML3; [8]): 0.16 µM; IC50 (MV4;11; [3]): 0.2 µM
OCCC#Cc1nc(-c2ccc(F)cc2)c(-c2ccncc2)n1CCCc1ccccc1 [RWJ-67657],,,,,,,,,> 10 µM,> 10 µM,> 10 µM,8.05 µM,,,,,,3.59 µM,> 10 µM,5.77 µM,IC50 (THP-1; [3]): > 10 µM; IC50 (JURKAT; [3]): > 10 µM; IC50 (MEG-01; [3]): > 10 µM; IC50 (OCI-AML3; [8]): > 10 µM; IC50 (MV4;11; [3]): 8.28 µM
NC(=O)c1ccc2[nH]ccc2c1 [SD169],> 10 µM,> 10 µM,> 10 µM,> 10 µM,> 10 µM,> 10 µM,> 10 µM,> 10 µM,,,,,5.12 µM,> 10 µM,> 10 µM,> 10 µM,,,,,
CN1CC[C@H](c2c(O)cc(O)c3c(=O)cc(-c4ccccc4Cl)oc23)[C@H](O)C1 [Flavopiridol],,,,,,,,,,,,,,,,,induced rapid cell death,,,,effect on mouse neutrophil viability (words) ([1]; listed as flavopiridol): significant impact on neutrophil viability
Cc1cc(Nc2nc(N[C@@H](C)c3ccc(F)cc3)c(C#N)cc2F)n[nH]1 [AZ-960],,,,,,,,,,,,,,,,,significantly affected neutrophil viability,,,,

# Continued, in another order:
IC50 (K562; [2]),IC50 (HL-60; [2]),IC50 (MOLT4; [2]),IC50 (U937; [2]),IC50 (THP-1; [2]),IC50 (JURKAT; [2]),IC50 (OCI-AML3; [2]),IC50 (MV4;11; [2]),IC50 (K562; [3]),IC50 (HL-60; [3]),IC50 (MOLT4; [5]),IC50 (U937; [7]),Structure (SMILES),IC50 (EOL-1; [2]),IC50 (HEL.92.1.7; [2]),IC50 (KU-812; [2]),IC50 (MEG-01; [2]),effect on mouse neutrophil viability (words) [1],IC50 (EOL-1; [4]),IC50 (HEL.92.1.7; [3]),IC50 (KU-812; [6]),further results
5.98 µM,2.35 µM,4.68 µM,1.05 µM,5.98 µM,3.21 µM,6.23 µM,5.89 µM,,,,,CC(=O)Nc1ccc([C@H](C)C(=O)Nc2ncc(C(C)C)s2)cc1 [PHA690509],5.31 µM,2.88 µM,3.93 µM,5.39 µM,,,,,
> 10 µM,> 10 µM,> 10 µM,> 10 µM,> 10 µM,> 10 µM,> 10 µM,> 10 µM,,,,,Cn1c(=O)c(Oc2ccc(F)cc2F)cc2cnc(NC3CCOCC3)nc21 [R1487],1.41 µM,> 10 µM,> 10 µM,> 10 µM,,,,,
,,,,,,,,> 10 µM,> 10 µM,> 10 µM,6.6 µM,Oc1ccc(-c2nc(-c3ccncc3)c(-c3ccc(F)cc3)[nH]2)cc1 [SB202190],,,,,,3.68 µM,> 10 µM,9.36 µM,IC50 (THP-1; [3]): > 10 µM; IC50 (JURKAT; [3]): > 10 µM; IC50 (MEG-01; [3]): 6.83 µM; IC50 (OCI-AML3; [8]): > 10 µM; IC50 (MV4;11; [3]): 7 µM
,,,,,,,,5.72 µM,1.8 µM,2.37 µM,2.06 µM,CN(C)C/C=C/C(=O)Nc1cc2c(Nc3ccc(F)c(Cl)c3)ncnc2cc1O[C@H]1CCOC1 [TOVOK],,,,,,0.68 µM,1.94 µM,2.71 µM,IC50 (THP-1; [3]): 4.31 µM; IC50 (JURKAT; [3]): 2.11 µM; IC50 (MEG-01; [3]): 5.02 µM; IC50 (OCI-AML3; [8]): 3.36 µM; IC50 (MV4;11; [3]): 0.44 µM
> 10 µM,2.24 µM,3.92 µM,2.32 µM,5.41 µM,9.47 µM,0.82 µM,6.41 µM,,,,,COc1ccc2c(c1OC)N=C(NC(=O)c1cccnc1)N1CCN=C21 [PIK-90],5.09 µM,> 10 µM,> 10 µM,> 10 µM,,,,,
